Each structure is given as a SMILES string.

The record followed here is US20250230154A1, “COMPOUND HAVING SHP2 PROTEIN DEGRADING ACTIVITY, AND MEDICAL USES THEREOF” (UBIX THERAPEUTICS, INC., priority 2021, published 2025).

The target in this assay is T1, SHP2 protein (Homo sapiens, UniProt Q06124).
T1 sequence (Q06124 1-593): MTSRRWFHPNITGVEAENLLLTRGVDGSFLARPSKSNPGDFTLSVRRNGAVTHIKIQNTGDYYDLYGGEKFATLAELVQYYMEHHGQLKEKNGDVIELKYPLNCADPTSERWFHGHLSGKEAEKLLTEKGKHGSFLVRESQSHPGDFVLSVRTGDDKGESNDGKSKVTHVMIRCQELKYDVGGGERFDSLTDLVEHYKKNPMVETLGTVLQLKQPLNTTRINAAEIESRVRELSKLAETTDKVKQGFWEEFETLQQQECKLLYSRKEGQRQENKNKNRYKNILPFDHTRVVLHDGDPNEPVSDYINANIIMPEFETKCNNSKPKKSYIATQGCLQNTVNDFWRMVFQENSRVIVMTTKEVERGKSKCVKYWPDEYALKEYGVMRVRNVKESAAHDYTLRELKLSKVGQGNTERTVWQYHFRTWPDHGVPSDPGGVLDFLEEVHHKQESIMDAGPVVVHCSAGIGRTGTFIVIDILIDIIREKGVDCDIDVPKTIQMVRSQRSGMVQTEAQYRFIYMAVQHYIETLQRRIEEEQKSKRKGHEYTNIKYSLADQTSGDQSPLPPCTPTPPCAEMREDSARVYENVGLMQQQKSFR
Kind of assay: Measurement of SHP2 protein degradation in MV-4-11 cells (western blotting). The format is cell-based. On the set-up: endogenous in cells; host or cells: MV-4-11. To be noted: for SHP2 degradation (%) 10 nM / SHP2 degradation (%) 100 nM / SHP2 degradation (%) 1000 nM: MV-4-11 cells, 24 hours. As for the experimental part:
Experimental Example 2: Measurement of SHP2 Protein Degradation in MV-4-11 Cells
MV-4-11 cells were treated with the synthesized Example compound, and the amount of SHP2 protein present in the cells was measured using western blotting detection. The protocol of the experiment conducted using MV-4-11 cells was as follows:
[Culture] MV-4-11 cells resuspended in IMDM MEDIUM (Hyclone, SH30228.01) containing 5% FBS (Hyclone, SV30207.02) and 1% Penicillin-streptomycin (Welgene, LS 202-02) were seeded at a density of 1×10^6/mL/well in a 12-well plate in an amount of 1 ml each.
[Compound treatment] The 12-well plate was treated as follows: Cells were treated with compounds at a final concentration of […] made by serial dilution of 10 mM stock with DMSO in 1/100 increments […]. After 24 hours, cells were harvested. For the negative control group, DMSO diluted 1/100 to the media (3 mL DMSO+297 mL media) was added.
[Harvest] Each well was collected in a 1.5 mL microtube by pipetting with a 1 mL pipette and centrifuged (500 g, 5 min, 4° C.). The supernatant was removed. It was washed with PBS, and then centrifuged again (500 g, 5 min, 4° C.). Thereafter, the supernatant was removed to prepare a pellet.
[Cell Lysis and Sample preparation] Lysis buffer was prepared as follows: […] of RIPA buffer (Biosesang, RC2038-050-00)+0.5 mM PMSF (SIGMA, P7626)+1× Protease/Phosphatase Inhibitor (Cell signaling, 5872S) per well was added and placed on ice for 30 minutes (vortexing at 0 and 30 minutes, respectively). After sonication process (10 seconds pulse, 30 seconds rest, 5 cycles, 70% amplification), centrifugation (15000 g, 15 min, 4° C.) was performed, and then only the supernatant was taken and transferred to a microtube. The sample was diluted ¼ with RIPA buffer in a 96-well plate, and mixed with A:B=50:1 of the BCA Protein Assay Kit (iNtRON, 21071). […] each of the mixture was left at 37° C. for 30 minutes, and cooled for 10 minutes. Then, absorbance was measured at 562 nm with the SYNERGY H1 microplate reader from BioTek. After making a sample by quantifying the protein with the measured value, boiling was performed at 70° C. for 10 minutes. At this time, the sample buffer used was a mixture of NuPAGE or Bolt 4× sample buffer (Invitrogen) and each 10× sample reducing agent according to the gel to be used, and RIPA buffer was used for protein dilution.
[Western blotting detection method] The same amount of sample was loaded on NuPAGE or Bolt Bis-tris 4-12% gradient gel and run (200 V, 35 minutes). It was transferred to 0.2 mm NC membrane with Trans-blot Turbo (BIO-RAD) (1.3 A constant, 25 V limit, 15 minutes). Blocking was performed at room temperature for 1 hour with Skim milk or Intercept Blocking Buffer (LI-COR, 927-60001):0.1% TBST=1:1. Anti-SHPTP2 Mouse (1:500 in 2% BSA/0.2% TBST, size: 70 kDa, Santacruz sc-7384) was incubated overnight at 4° C., and Anti-GAPDH Rabbit (1:2,000 in 2% BSA/0.2% TBST, size: 37 kDa, CST #2118) was incubated at room temperature for 1 hour 30 minutes or 3 hours. It was washed 3 times for 5 minutes each with 0.2% TBST washing buffer. Secondary antibody Anti-Rabbit IgG (1:5,000 in 2% BSA/0.2% TBST, CST), IRDye® 680RD Goat anti-Rabbit IgG Secondary Antibody (1:10,000 in 2% BSA/0.2% TBST, LI-COR 926-68071) were added and incubated for 45 minutes on a rocker at room temperature. It was washed 5 times for 5 minutes each with 0.2% TBST washing buffer and detected with LI-COR's Odyssey. At this time, SHPTP2 was detected using SuperSignal West Pico PLUS Chemiluminescent Substrate, and house-keeping genes were also detected.
In the results of Table 4 below, Compounds 1-7, 13-19, and 21-26 are results in KYSE-520 cells, and the others are results in MV-4-11 cells.
Background: In western blotting, separated proteins are transferred to a membrane and probed.

Regarding `Cc1ncsc1-c1ccc(CNC(=O)[C@@H]2C[C@@H](O)CN2C(=O)[C@@H](NC(=O)C2(F)CC2)C(C)(C)C)c(OCCCC2CCN(C(=O)CC(=O)Nc3cccc(Sc4ncc(N5CCC(C)(N)CC5)nc4N)c3Cl)CC2)c1` [Example 40, (2S,4R)—N-(2-(3-(1-(3-((3-((3-amino-5-(4-amino-4-methylpiperidin-1-yl)pyrazin-2-yl)thio)-2-chlorophenyl)amino)-3-oxopropanoyl)piperidin-4-yl)propoxy)-4-(4-methylthiazol-5-yl)benzyl)-1-((S)-2-(1-fluorocyclopropane-1-carboxamido)-3,3-dimethylbutanoyl)-4-hydroxypyrrolidine-2-carboxamide], the “SHP2 degradation (%) 10 nM” value is 67.0% and the “SHP2 degradation (%) 100 nM” value turned out to be 95.0%.
Take `Cc1ncsc1-c1ccc(CNC(=O)[C@@H]2C[C@@H](O)CN2C(=O)[C@@H](NC(=O)C2(F)CC2)C(C)(C)C)c(OCC2CCN(C(=O)CC(=O)Nc3cccc(Sc4ncc(N5CCC(C)(N)CC5)nc4N)c3Cl)CC2)c1` [Example 30, (2S,4R)—N-(2-((1-(3-((3-((3-amino-5-(4-amino-4-methylpiperidin-1-yl)pyrazin-2-yl)thio)-2-chlorophenyl)amino)-3-oxopropanoyl)piperidin-4-yl)methoxy)-4-(4-methylthiazol-5-yl)benzyl)-1-((S)-2-(1-fluorocyclopropane-1-carboxamido)-3,3-dimethylbutanoyl)-4-hydroxypyrrolidine-2-carboxamide]: the “SHP2 degradation (%) 10 nM” value is listed as 71.5% and the “SHP2 degradation (%) 100 nM” value was 95.5%.
As to `Cc1ncsc1-c1ccc(CNC(=O)[C@@H]2C[C@@H](O)CN2C(=O)[C@@H](NC(=O)C2(F)CC2)C(C)(C)C)c(OCCCN2CCN(C(=O)CC(=O)Nc3cccc(Sc4cnc(N5CCC(C)(CN)CC5)cn4)c3Cl)[C@H](C)C2)c1` [Example 65], the “SHP2 degradation (%) 10 nM” value is reported as 31.6% and the “SHP2 degradation (%) 100 nM” value is listed as 95.4%.
The corresponding values for `Cc1ncsc1-c1ccc(CNC(=O)[C@@H]2C[C@@H](O)CN2C(=O)[C@@H](NC(=O)C2(F)CC2)C(C)(C)C)c(OC2CC3(CCN(c4cnc(C(=O)Nc5cccc(Sc6cnc(N7CCC(C)(CN)CC7)cn6)c5Cl)nc4)CC3)C2)c1` [Example 87, N-(3-((5-(4-(aminomethyl)-4-methylpiperidin-1-yl)pyrazin-2-yl)thio)-2-chlorophenyl)-5-(2-(2-(((2S,4R)-1-((S)-2-(1-fluorocyclopropane-1-carboxamido)-3,3-dimethylbutanoyl)-4-hydroxypyrrolidine-2-carboxamido)methyl)-5-(4-methylthiazol-5-yl)phenoxy)-7-azaspiro[3.5]nonan-7-yl)pyrimidine-2-carboxamide] are 9.1% and 45.5%.
For the compound `Cc1ncsc1-c1ccc(CNC(=O)[C@@H]2C[C@@H](O)CN2C(=O)[C@@H](NC(=O)C2(F)CC2)C(C)(C)C)c(OCCCC2CCN(CC(=O)Nc3cccc(Sc4cnc(N5CCC(C)(CN)CC5)cn4)c3Cl)CC2)c1` [Example 71, (2S,4R)—N-(2-(3-(1-(2-((3-((5-(4-(aminomethyl)-4-methylpiperidin-1-yl)pyrazin-2-yl)thio)-2-chlorophenyl)amino)-2-oxoethyl)piperidin-4-yl)propoxy)-4-(4-methylthiazol-5-yl)benzyl)-1-((S)-2-(1-fluorocyclopropane-1-carboxamido)-3,3-dimethylbutanoyl)-4-hydroxypyrrolidine-2-carboxamide], the “SHP2 degradation (%) 10 nM” value is reported as −1.0%, the “SHP2 degradation (%) 100 nM” value was determined as 29.0% and the “SHP2 degradation (%) 1000 nM” value came to 87.5%.
`Cc1ncsc1-c1ccc(CNC(=O)[C@@H]2C[C@@H](O)CN2C(=O)[C@@H](NC(=O)C2(F)CC2)C(C)(C)C)c(OCCC2CCN(C(=O)CC(=O)Nc3cccc(Sc4ncc(N5CCC(C)(CN)CC5)nc4N)c3Cl)CC2)c1` [Example 37, (2S,4R)—N-(2-(2-(1-(3-((3-((3-amino-5-(4-(aminomethyl)-4-methylpiperidin-1-yl)pyrazin-2-yl)thio)-2-chlorophenyl)amino)-3-oxopropanoyl)piperidin-4-yl)ethoxy)-4-(4-methylthiazol-5-yl)benzyl)-1-((S)-2-(1-fluorocyclopropane-1-carboxamido)-3,3-dimethylbutanoyl)-4-hydroxypyrrolidine-2-carboxamide]: the “SHP2 degradation (%) 10 nM” value is recorded as 80.5%, the “SHP2 degradation (%) 100 nM” value worked out at 89.5% and the “SHP2 degradation (%) 1000 nM” value came out at 90.5%.
Take `Cc1ncsc1-c1ccc(CNC(=O)[C@@H]2C[C@@H](O)CN2C(=O)[C@@H](NC(=O)C2(F)CC2)C(C)(C)C)c(OCC2CCN(C(=O)C3(C(=O)Nc4cccc(Sc5cnc(N6CCC(C)(CN)CC6)cn5)c4Cl)CC3)CC2)c1` [Example 46, (2S,4R)—N-(2-((1-(1-((3-((5-(4-(aminomethyl)-4-methylpiperidin-1-yl)pyrazin-2-yl)thio)-2-chlorophenyl)carbamoyl)cyclopropane-1-carbonyl)piperidin-4-yl)methoxy)-4-(4-methylthiazol-5-yl)benzyl)-1-((S)-2-(1-fluorocyclopropane-1-carboxamido)-3,3-dimethylbutanoyl)-4-hydroxypyrrolidine-2-carboxamide]: the “SHP2 degradation (%) 10 nM” value was 0.1% and the “SHP2 degradation (%) 100 nM” value was found to be 52.3%. For the same compound, the “SHP2 protein degradation activity (in words)” value (comment on Table 4) is given as “somewhat decreased”.
Consider `Cc1ncsc1-c1ccc(CNC(=O)[C@@H]2C[C@@H](O)CN2C(=O)[C@@H](NC(=O)C2(F)CC2)C(C)(C)C)c(OCCCN2CCC(CC(=O)Nc3cccc(Sc4ncc(N5CCC(C)(N)CC5)nc4N)c3Cl)CC2)c1` [Example 9, (2S,4R)—N-(2-(3-(4-(2-((3-((3-amino-5-(4-amino-4-methylpiperidin-1-yl)pyrazin-2-yl)thio)-2-chlorophenyl)amino)-2-oxoethyl)piperidin-1-yl)propoxy)-4-(4-methylthiazol-5-yl)benzyl)-1-((S)-2-(1-fluorocyclopropane-1-carboxamido)-3,3-dimethylbutanoyl)-4-hydroxypyrrolidine-2-carboxamide], for which the “SHP2 degradation (%) 10 nM” value amounted to 39.6%, the “SHP2 degradation (%) 100 nM” value is on record as 93.3% and the “SHP2 degradation (%) 1000 nM” value was 95.6%.
